# Experiments:
# [1] = target: human α1G T-type channels (Homo sapiens, UniProt O43497); assay: T-type calcium channel block, whole cell patch clamp, α1G; assay type: cell-based; conditions: HEK cells stably expressing human α1G; mainly non-inactivated protocol; values above 10,000 nM represented as 10000
# In short: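 Whole-cell voltage clamp on stably transfected HEK 293 lines carrying human α1H or α1G. Two voltage protocols used: non-inactivated pre-pulse for resting block, inactivated for voltage-dependent block; test agents perfused locally in external solution (0.1-0.01% DMSO) following ~10 min rest.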
# [2] = target: human α1H T-type channels (Homo sapiens, UniProt O95180); assay: T-type calcium channel block, whole cell patch clamp, α1H; assay type: cell-based; conditions: HEK cells stably expressing human α1H; mainly non-inactivated protocol; values above 10,000 nM represented as 10000
# Procedure: T-type calcium channel blocking activity was assayed in human embryonic kidneycells, HEK 293 (Invitrogen), stably transfected with the T-type calcium channel subunits. Briefly, cells were cultured in Dulbecco's modified eagle medium (DMEM) supplemented with 10% fetal bovine serum, 200 U/ml penicillin, and 0.2 mg/mL streptomycin at 37° C. with 5% CO2. At 85% confluency, cells were split with 0.25% trypsin/1 mM EDTA and plated at 10% confluency on glass coverslips. At 12 hours, the medium was replaced, and the cells stably transfected using a standard calcium phosphate protocol and the appropriate calcium channel cDNA's. Fresh DMEM was supplied, and the cells transferred to 28° C./5% CO2.
# Standard patch-clamp techniques were employed to identify blockers of T-type currents. Briefly, previously described HEK cell lines stably expressing human α1G, α1H, and α1I T-type channels were used for all the recordings (passage #: 4-20, 37° C., 5% CO2). Whole cell patch clamp experiments were performed using an Axopatch 200B amplifier (Axon Instruments, Burlingame, Calif.) linked to a personal computer equipped with pCLAMP software. Data were analyzed using Clampfit (Axon Instruments) and SigmaPlot 4.0 (Jandel Scientific). To obtain T-type currents, plastic dishes containing semi-confluent cells were positioned on the stage of a ZEISS AXIOVERT S100 microscope after replacing the culture medium with external solution (Table 2). Whole-cell patches were obtained using pipettes (borosilicate glass with filament, O.D.: 1.5 mm, I.D.: 0.86 mm, 10 cm length), fabricated on a SUTTER P-97 puller with resistance values of ˜5 MΩ (Table 3).
# T-type currents were reliably obtained by using two voltage protocols: • “non-inactivating,” and • “inactivation.”
# Test compounds were dissolved in external solution, 0.1-0.01% DMSO. After ˜10 minutes rest, they were applied by gravity close to the cell using a WPI microfil tubing. The “non-inactivated” pre-pulse was used to examine the resting block of a compound. The “inactivated” protocol was employed to study voltage-dependent block.
# Chain of human α1G T-type channels (O43497 whole entry, the tested form may be a part): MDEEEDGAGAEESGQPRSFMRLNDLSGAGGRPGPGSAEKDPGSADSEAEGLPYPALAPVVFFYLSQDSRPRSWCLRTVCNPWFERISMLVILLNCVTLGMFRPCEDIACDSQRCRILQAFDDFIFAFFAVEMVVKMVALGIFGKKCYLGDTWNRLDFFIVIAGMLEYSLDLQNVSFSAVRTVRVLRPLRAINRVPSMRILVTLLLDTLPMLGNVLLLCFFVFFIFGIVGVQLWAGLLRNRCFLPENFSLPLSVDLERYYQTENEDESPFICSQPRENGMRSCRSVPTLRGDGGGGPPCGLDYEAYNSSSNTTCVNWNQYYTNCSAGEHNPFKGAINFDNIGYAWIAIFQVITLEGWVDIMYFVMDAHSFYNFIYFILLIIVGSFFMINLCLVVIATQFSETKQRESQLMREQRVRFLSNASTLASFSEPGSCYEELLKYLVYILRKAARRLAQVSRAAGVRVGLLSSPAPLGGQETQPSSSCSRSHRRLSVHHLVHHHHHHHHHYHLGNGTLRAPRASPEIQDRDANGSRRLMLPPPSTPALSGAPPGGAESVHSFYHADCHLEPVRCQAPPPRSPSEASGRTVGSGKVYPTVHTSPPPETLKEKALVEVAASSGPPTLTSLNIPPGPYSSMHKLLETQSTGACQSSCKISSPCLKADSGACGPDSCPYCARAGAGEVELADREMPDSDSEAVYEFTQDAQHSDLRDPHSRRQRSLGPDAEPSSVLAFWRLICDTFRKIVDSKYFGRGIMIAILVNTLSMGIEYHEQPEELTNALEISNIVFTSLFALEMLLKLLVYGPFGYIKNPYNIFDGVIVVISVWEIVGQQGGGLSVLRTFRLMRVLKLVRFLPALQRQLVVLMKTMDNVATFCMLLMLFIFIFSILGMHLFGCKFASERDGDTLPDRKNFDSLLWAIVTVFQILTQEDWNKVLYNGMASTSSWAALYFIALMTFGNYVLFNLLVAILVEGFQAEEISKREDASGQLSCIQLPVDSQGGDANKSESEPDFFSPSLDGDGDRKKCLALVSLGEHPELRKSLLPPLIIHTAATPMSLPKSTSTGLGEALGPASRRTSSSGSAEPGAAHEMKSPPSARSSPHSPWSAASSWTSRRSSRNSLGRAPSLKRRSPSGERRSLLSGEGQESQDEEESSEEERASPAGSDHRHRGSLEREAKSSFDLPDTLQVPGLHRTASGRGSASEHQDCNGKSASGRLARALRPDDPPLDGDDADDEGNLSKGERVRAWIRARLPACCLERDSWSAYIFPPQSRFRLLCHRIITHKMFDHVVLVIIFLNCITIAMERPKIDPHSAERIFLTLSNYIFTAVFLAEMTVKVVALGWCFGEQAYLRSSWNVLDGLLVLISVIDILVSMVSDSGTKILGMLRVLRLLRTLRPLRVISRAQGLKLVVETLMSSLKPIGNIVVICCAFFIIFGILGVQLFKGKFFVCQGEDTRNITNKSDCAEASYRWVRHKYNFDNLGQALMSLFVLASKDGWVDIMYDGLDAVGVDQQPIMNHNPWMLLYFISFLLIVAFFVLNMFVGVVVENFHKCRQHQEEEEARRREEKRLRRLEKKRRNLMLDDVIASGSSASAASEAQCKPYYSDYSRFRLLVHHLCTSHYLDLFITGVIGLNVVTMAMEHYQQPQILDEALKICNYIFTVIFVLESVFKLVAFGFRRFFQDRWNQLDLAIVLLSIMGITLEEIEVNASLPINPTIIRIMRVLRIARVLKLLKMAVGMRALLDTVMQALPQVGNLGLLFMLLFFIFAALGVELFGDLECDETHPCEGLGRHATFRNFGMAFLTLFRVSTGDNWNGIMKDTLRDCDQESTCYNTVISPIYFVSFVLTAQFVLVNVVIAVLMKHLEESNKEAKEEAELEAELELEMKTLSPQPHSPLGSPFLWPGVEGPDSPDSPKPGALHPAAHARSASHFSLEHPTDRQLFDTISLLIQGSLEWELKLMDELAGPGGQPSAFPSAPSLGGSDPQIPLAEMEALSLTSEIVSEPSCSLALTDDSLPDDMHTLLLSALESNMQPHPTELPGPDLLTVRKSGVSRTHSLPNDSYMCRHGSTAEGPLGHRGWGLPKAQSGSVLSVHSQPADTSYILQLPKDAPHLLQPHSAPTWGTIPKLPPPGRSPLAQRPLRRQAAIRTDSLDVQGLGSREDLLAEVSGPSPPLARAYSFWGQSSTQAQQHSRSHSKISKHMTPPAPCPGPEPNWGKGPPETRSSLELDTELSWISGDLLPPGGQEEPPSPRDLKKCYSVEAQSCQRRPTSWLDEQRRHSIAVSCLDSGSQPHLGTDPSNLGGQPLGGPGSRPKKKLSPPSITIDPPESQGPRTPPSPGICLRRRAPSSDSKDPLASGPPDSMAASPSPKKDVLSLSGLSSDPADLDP
# Chain of human α1H T-type channels (O95180 whole entry): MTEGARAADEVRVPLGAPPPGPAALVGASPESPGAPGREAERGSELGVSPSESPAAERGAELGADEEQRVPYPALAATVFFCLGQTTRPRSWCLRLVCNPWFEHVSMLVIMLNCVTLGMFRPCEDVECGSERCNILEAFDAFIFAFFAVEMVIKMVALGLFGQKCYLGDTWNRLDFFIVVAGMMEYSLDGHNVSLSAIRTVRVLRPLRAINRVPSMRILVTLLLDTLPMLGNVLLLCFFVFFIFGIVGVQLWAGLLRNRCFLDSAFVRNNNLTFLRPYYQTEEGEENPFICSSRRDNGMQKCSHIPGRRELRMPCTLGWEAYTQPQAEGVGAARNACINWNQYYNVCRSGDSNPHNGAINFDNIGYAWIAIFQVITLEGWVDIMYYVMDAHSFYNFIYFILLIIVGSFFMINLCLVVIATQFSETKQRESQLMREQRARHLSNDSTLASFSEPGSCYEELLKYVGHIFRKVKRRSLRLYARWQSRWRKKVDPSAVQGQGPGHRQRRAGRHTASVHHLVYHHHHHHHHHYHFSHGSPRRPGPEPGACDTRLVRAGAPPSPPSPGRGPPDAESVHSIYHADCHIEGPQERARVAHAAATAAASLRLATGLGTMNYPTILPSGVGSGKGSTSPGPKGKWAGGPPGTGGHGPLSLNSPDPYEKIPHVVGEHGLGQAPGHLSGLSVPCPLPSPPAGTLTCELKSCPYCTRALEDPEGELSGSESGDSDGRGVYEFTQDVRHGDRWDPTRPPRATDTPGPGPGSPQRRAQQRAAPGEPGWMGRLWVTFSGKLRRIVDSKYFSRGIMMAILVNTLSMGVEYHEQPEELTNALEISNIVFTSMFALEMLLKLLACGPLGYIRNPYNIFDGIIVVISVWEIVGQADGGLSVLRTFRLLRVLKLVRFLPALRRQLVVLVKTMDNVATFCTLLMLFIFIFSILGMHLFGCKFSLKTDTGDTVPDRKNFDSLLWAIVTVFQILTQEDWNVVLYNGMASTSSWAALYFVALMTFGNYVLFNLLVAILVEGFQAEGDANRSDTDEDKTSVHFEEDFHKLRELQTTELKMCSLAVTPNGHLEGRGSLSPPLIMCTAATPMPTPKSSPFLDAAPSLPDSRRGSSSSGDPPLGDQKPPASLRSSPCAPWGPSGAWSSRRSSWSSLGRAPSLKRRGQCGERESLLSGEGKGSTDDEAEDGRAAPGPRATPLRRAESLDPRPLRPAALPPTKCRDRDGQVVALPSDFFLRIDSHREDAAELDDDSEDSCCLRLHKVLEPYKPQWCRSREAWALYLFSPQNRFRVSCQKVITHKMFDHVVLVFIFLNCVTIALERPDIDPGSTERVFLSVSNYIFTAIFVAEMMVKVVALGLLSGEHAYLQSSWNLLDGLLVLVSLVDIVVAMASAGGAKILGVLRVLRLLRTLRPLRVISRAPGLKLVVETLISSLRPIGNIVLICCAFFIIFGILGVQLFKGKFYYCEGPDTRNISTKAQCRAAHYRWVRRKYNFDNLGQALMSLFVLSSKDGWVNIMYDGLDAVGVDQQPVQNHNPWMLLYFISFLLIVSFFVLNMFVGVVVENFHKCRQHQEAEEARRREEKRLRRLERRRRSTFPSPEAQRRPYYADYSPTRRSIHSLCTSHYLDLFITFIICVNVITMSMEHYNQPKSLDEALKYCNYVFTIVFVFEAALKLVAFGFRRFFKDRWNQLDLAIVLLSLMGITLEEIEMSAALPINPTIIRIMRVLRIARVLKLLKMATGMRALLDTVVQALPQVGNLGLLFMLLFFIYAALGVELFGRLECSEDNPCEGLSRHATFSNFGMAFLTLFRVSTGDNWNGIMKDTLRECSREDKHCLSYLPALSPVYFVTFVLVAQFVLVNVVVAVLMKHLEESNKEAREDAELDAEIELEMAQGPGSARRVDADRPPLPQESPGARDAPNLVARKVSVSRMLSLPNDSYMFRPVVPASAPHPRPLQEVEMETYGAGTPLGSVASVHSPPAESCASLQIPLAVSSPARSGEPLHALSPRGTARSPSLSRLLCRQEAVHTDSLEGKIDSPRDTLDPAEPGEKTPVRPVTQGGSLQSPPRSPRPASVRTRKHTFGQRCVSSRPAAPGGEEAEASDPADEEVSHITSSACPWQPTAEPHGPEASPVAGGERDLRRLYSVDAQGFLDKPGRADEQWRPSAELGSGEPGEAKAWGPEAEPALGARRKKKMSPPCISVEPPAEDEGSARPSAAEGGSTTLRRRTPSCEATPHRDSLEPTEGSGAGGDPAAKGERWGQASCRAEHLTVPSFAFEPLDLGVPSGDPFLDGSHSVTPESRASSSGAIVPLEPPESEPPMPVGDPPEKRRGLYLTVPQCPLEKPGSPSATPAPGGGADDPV
Structure (SMILES),IC50 [1] [nM],IC50 [2] [nM]
"CC(C)(C(=O)NCCc1ccc(Cl)c(Cl)c1)S(=O)(=O)c1cccc(C(F)(F)F)c1 [Compound 451, N-(3,4-dichlorophenethyl)-2-methyl-2-(3-(trifluoromethyl)phenylsulfonyl)propanamide]",260,2410
"CN(CCc1ccc(F)cc1)C(=O)C(C)(C)S(=O)(=O)c1cccc(C(F)(F)F)c1 [Compound 452, N-(4-fluorophenethyl)-N,2-dimethyl-2-(3-(trifluoromethyl)phenylsulfonyl)propanamide]",570,9810
"CN(Cc1ccc(F)c(C(F)(F)F)c1)C(=O)C(C)(C)S(=O)(=O)c1cccc(C(F)(F)F)c1 [Compound 454, N-(4-fluoro-3-(trifluoromethyl)benzyl)-N,2-dimethyl-2-(3-(trifluoromethyl)phenylsulfonyl)propanamide]",610,3480
"CC(C)(CNC(=O)c1nc2cc(C(F)(F)F)ccc2[nH]1)S(=O)(=O)c1cccc(C(F)(F)F)c1 [Compound 457, N-(2-methyl-2-(3-(trifluoromethyl)phenylsulfonyl)propyl)-5-(trifluoromethyl)-1H-benzo[d]imidazole-2-carboxamide]",560,1200
"CC(C)(C(=O)Nc1nc2cc(C(F)(F)F)ccc2[nH]1)S(=O)(=O)c1cccc(C(F)(F)F)c1 [Compound 458, 2-methyl-N-(5-(trifluoromethyl)-1H-benzo[d]imidazol-2-yl)-2-(3-(trifluoromethyl)phenylsulfonyl)propanamide]",900,1920
"CC1(NC(=O)CNCC(C)(C)S(=O)(=O)c2cccc(C(F)(F)F)c2)CCC1 [Compound 459, 2-(2-methyl-2-(3-(trifluoromethyl)phenylsulfonyl)propylamino)-N-(l-methylcyclobutyl)acetamide]",820,> 10000
"CC(C)(CCNC(=O)c1ccc(C(F)(F)F)cc1S(C)(=O)=O)S(=O)(=O)c1cccc(C(F)(F)F)c1 [Compound 469, N-(3-methyl-3-(3-(trifluoromethyl)phenylsulfonyl)butyl)-2-(methylsulfonyl)-4-(trifluoromethyl)benzamide]",430,5040
"CC(C)(CCNC(=O)c1ccc(C(F)(F)F)cn1)S(=O)(=O)c1cccc(C(F)(F)F)c1 [Compound 470, N-(3-methyl-3-(3-(trifluoromethyl)phenylsulfonyl)butyl)-5-(trifluoromethyl)picolinamide]",130,5840
"CC(C)(C)NC(=O)CNCCC(C)(C)S(=O)(=O)c1cccc(C(F)(F)F)c1 [Compound 471, N-tert-butyl-2-(3-methyl-3-(3-(trifluoromethyl)phenylsulfonyl)butylamino) acetamide]",610,> 10000
"CC(C)(CCNCC(=O)NC1CCCCC1)S(=O)(=O)c1cccc(C(F)(F)F)c1 [Compound 472, N-cyclohexyl-2-(3-methyl-3-(3-(trifluoromethyl)phenylsulfonyl)butylamino) acetamide]",620,3470
"CN(C(=O)CNCCC(C)(C)S(=O)(=O)c1cccc(C(F)(F)F)c1)C(C)(C)C [Compound 473, N-tert-butyl-N-methyl-2-(3-methyl-3-(3-(trifluoromethyl)phenylsulfonyl)butylamino) acetamide]",680,9280
"CC(C)(CNC(=O)c1cc(C(F)(F)F)ccn1)S(=O)(=O)c1cccc(C(F)(F)F)c1 [Compound 475, N-(2-methyl-2-(3-(trifluoromethyl)phenylsulfonyl)propyl)-4-(trifluoromethyl)picolinamide]",480,6970

# The remaining lines, values ahead:
IC50 [1] [nM],IC50 [2] [nM],Structure (SMILES)
> 10000,6730,"Cc1cc(C(=O)N[C@H]2CC[C@H](CS(=O)(=O)c3cccc(C(F)(F)F)c3)CC2)c(C(F)(F)F)o1 [Compound 172, 5-methyl-2-(trifluoromethyl)-N-((1R,4R)-4-((3-(trifluoromethyl)phenylsulfonyl)methyl)cyclohexyl)furan-3-carboxamide]"
7340,> 10000,"CS(=O)(=O)c1nc(C(F)(F)F)ccc1C(=O)N[C@H]1CC[C@@](F)(S(=O)(=O)c2cccc(OC(F)(F)F)c2)CC1 [Compound 258, N-((1S,4S)-4-fluoro-4-(3-(trifluoromethoxy)phenylsulfonyl)cyclohexyl)-2-(methylsulfonyl)-6-(trifluoromethyl)nicotinamide]"
450,550,"CC(C)(C(=O)Nc1nc2ccc(Cl)cc2s1)S(=O)(=O)c1cccc(C(F)(F)F)c1 [Compound 449, N-(6-chlorobenzo[d]thiazol-2-yl)-2-methyl-2-(3-(trifluoromethyl)phenylsulfonyl)propanamide]"
690,3930,"CN(CCc1ccc(Cl)c(Cl)c1)C(=O)C(C)(C)S(=O)(=O)c1cccc(C(F)(F)F)c1 [Compound 453, N-(3,4-dichlorophenethyl)-N,2-dimethyl-2-(3-(trifluoromethyl)phenylsulfonyl)propanamide]"
400,2500,"CC(C)(CNC(=O)c1cc(F)cc(Cl)c1)S(=O)(=O)c1cccc(C(F)(F)F)c1 [Compound 455, 3-chloro-5-fluoro-N-(2-methyl-2-(3-(trifluoromethyl)phenylsulfonyl)propyl)benzamide]"
710,910,"CC(C)(CNC(=O)c1ccc(F)c(C(F)(F)F)c1)S(=O)(=O)c1cccc(C(F)(F)F)c1 [Compound 456, 4-fluoro-N-(2-methyl-2-(3-(trifluoromethyl)phenylsulfonyl)propyl)-3-(trifluoromethyl)benzamide]"
100,> 10000,CC(C)(CCS(=O)(=O)c1cccc(C(F)(F)F)c1)S(=O)(=O)c1cccc(C(F)(F)F)c1 [Compound 460]
190,> 10000,"CC(C)(CCS(=O)(=O)c1cc(Cl)cc(Cl)c1)S(=O)(=O)c1cccc(C(F)(F)F)c1 [Compound 461, 1,3-dichloro-5-(3-methyl-3-(3-(trifluoromethyl)phenylsulfonyl)butylsulfonyl)benzene]"
560,> 10000,"CC(C)(CCS(=O)(=O)c1ccc(Cl)cc1)S(=O)(=O)c1cccc(C(F)(F)F)c1 [Compound 462, 1-(4-(4-chlorophenylsulfonyl)-2-methylbutan-2-ylsulfonyl)-3-(trifluoromethyl)benzene]"
350,> 10000,"CC(C)(CCS(=O)(=O)c1cccc(OC(F)(F)F)c1)S(=O)(=O)c1cccc(C(F)(F)F)c1 [Compound 463, 1-(3-methyl-3-(3-(trifluoromethyl)phenylsulfonyl)butylsulfonyl)-3-(trifluoromethoxy)benzene]"
60,2140,"COc1cc(F)cc(C(=O)NCCC(C)(C)S(=O)(=O)c2cccc(C(F)(F)F)c2)c1 [Compound 464, 3-fluoro-5-methoxy-N-(3-methyl-3-(3-(trifluoromethyl)phenylsulfonyl)butyl) benzamide]"
50,960,"CC(C)(CCNC(=O)c1cc(F)cc(Cl)c1)S(=O)(=O)c1cccc(C(F)(F)F)c1 [Compound 465, 3-chloro-5-tluoro-N-(3-methyl-3-(3-(trifluoromethyl)phenylsulfonyl)butyl) benzamide]"
170,1170,"Cn1nc(C(F)(F)F)cc1C(=O)NCCC(C)(C)S(=O)(=O)c1cccc(C(F)(F)F)c1 [Compound 467, 1-methyl-N-(3-methyl-3-(3-(trifluoromethyl)phenylsulfonyl)butyl)-3-(trifluoromethyl)-1H-pyrazole-5-carboxamide]"
350,4860,"CC(C)(CCNC(=O)c1ccc(F)cc1)S(=O)(=O)c1cccc(C(F)(F)F)c1 [Compound 468, 4-fluoro-N-(3-methyl-3-(3-(trifluoromethyl)phenylsulfonyl)butyl) benzamide]"
560,> 10000,"CC(C)(CNC(=O)c1ccc(C(F)(F)F)cc1S(C)(=O)=O)S(=O)(=O)c1cccc(C(F)(F)F)c1 [Compound 474, N-(2-methyl-2-(3-(trifluoromethyl)phenylsulfonyl)propyl)-2-(methylsulfonyl)-4-(tritluoromethyl)benzamide]"
400,5620,"CC(C)(CNC(=O)c1ccc(C(F)(F)F)cn1)S(=O)(=O)c1cccc(C(F)(F)F)c1 [Compound 476, N-(2-methyl-2-(3-(trifluoromethyl)phenylsulfonyl)propyl)-5-(trifluoromethyl)picolinamide]"

# From patent US20120245137A1 (Zalicus Pharmaceuticals Ltd., priority 2009, published 2012)
